According to patent publication US9518041B2, “(+)-5-(3,4-difluorophenyl)-5-[(3-methyl-2-oxopyridin-1(2H)-yl)methyl]imidazolidine-2,4-dione and drug containing same” (KAKEN PHARMACEUTICAL CO., LTD., priority 2013, dated 2016):
≈ marks a conversion by molar mass, not a printed value. Like-named read-outs stand apart in the source and are kept apart here.

How the values were obtained:
[1] = Solubility test in the 2nd fluid for the disintegration test of the Japanese Pharmacopoeia; type: physicochemical; conditions: pH 6.8, aqueous buffer, thermodynamic from solid; pH6.8, shaken for 2 hours
Description: Test substances (10.0 mg) were correctly weighed, and methanol was added to adjust to 10 mL. The solution was diluted by 10 times to prepare a solution of […].
In a centrifuge tube 5.0 mg of the test substance was weighed, added with 5.0 mL of the 2nd fluid for the disintegration test of the Japanese pharmacopoeia, supersonified for 3 minutes, and shaken for 2 hours thereafter. This solution was filitered with a membrane filter (0.2 μm), 500 μL the filtrate was measured, 500 μL of acetonitrile was added, and fully stirred to obtain the sample solution.
To 250 mL of 0.2 mol/L potassium dihydrogenphosphate aqueous solution, 118 mL of 0.2 mol/L sodium hydroxide aqueous solution and water was added to adjust to 1000 mL.
Using a high performance liquid chromatography, each of the sample solution for a calibration curve and sample solution for solubility measurement is measured twice to calculate an average area for each.
Based on the average area obtained in the above mentioned method, using an equation below to calculate a solubility. Solubility in the 2nd fluid for the disintegration test of the Japanese pharmacopoeia(μg/mL)=((P×2)/S)×100
S: Average area on the sample solution for a calibration curve
P: Average area on the sample solution for solubility measurement

[2] = Solubility test in organic solvents (propylene glycol, butylene glycol); type: physicochemical; conditions: organic solvent or mixture, thermodynamic from solid, visual observation after 24 hours at room temperature
Description: Under room temperature conditions, in a 0.5 mL polypropylene tube, (+)-5-(3,4-difluorophenyl)-5-[(3-methyl-2-oxopyridin-1(2H)-yl)methyl]imidazolidine-2,4-dione and (±)-5-(3,4-difluorophenyl)-5-[(3-methyl-2-oxopyridin-1(2H)-yl)methyl]imidazolidine-2,4-dione measured in advance for a suitable amount were prepared, respectively. In each tube, solvent (Propylene glycol (PG) or butylene glycol (BG)) was added with various amounts, e.g. 10 times, 20 times or 100 times amount of the test compound, and stirred with a vortex mixer. With a table ultrasonic washer set at 37° C., ultrasonication treatment was given for 10 minutes; after warming for an hour in a thermostat chamber, each were kept standing for 24 hours at room temperature. The test solutions were observed by sight to evaluate the states in accordance with the determination criterion given below.
Determination criterion consisted of the following two categories:
“Soluble”: Test compound dissolved; no undissolved substances confirmed by visual observation.
“Insoluble”: Test compound remains undissolved; undissolved substances confirmed by visual observation.

SMILES: Cc1cccn(CC2(c3ccc(F)c(F)c3)NC(=O)NC2=O)c1=O (racemic) [(±)-5-(3,4-difluorophenyl)-5-[(3-methyl-2-oxopyridin-1(2H)-yl)methyl]imidazolidine-2,4-dione]
- solubility at 2 h [1]: 45 µg/mL (≈ 0.135 mM)
- solubility at 24 h ([2]; BG, 20 times amount of the test compound, read-out: Solubility in butylene glycol (BG), 20 times amount): < 50 mg/mL
- solubility at 24 h ([2]; BG, 100 times amount of the test compound, read-out: Solubility in butylene glycol (BG), 100 times amount): > 10 mg/mL
- solubility at 24 h ([2]; PG, 10 times amount of the test compound, read-out: Solubility in propylene glycol (PG), 10 times amount): < 50 mg/mL
- solubility at 24 h ([2]; PG, 20 times amount of the test compound, read-out: Solubility in propylene glycol (PG), 20 times amount): < 50 mg/mL
- solubility at 24 h ([2]; PG, 100 times amount of the test compound, read-out: Solubility in propylene glycol (PG), 100 times amount): > 10 mg/mL
